No end group written: not given here.
Tests used:
gastrointestinal transit = assay: Murine gastrointestinal transit (GIT) assay, charcoal front; type: in vivo, mice; settings: for intestinal transit rate versus dosage: recombinantly synthesized peptides, FIG. 4a; for gastrointestinal transit rate: SEQ ID NO:4 and Zelnorm 0.1 mg/kg, FIG. 3a/3b
Procedure: In order to determine whether the peptides increase the rate of gastrointestinal transit, the peptides and controls were tested using a murine gastrointestinal transit (GIT) assay (Moon et al. Infection and Immunity 25:127, 1979). In this assay, charcoal, which can be readily visualized in the gastrointestinal tract is administered to mice after the administration of a test compound. The distance traveled by the charcoal is measured and expressed as a percentage of the total length of the […].
Mice were fasted with free access to water for 12 to 16 hours before the treatment with peptide or control buffer. The peptides were orally administered at 1 μg/kg-1 mg/kg of peptide in buffer (20 mM Tris pH 7.5) 7 minutes before being given an oral dose of 5% Activated Carbon (Aldrich 242276-250G). Control mice were administered buffer only before being given a dose of Activated Carbon. After 15 minutes, the mice were sacrificed and their intestines from the stomach to the cecum were dissected. The total length of the intestine as well as the distance traveled from the stomach to the charcoal front was measured for each animal and the results are expressed as the percent of the total length of the intestine traveled by the charcoal front. All results are reported as the average of 10 mice±standard deviation. A comparison of the distance traveled by the charcoal between the mice treated with peptide versus the mice treated with vehicle alone was performed using a Student's t test and a statistically significant difference was considered for P<0.05. P-values are calculated using a two-sided T-Test assuming unequal variances.
The identical experiment was performed to determine if SEQ ID NO:3 is effective in a chronic dosing treatment regimen. Briefly, 8 week old CD1 female mice are dosed orally once a day for 5 days with either SEQ ID NO:3 (0.06 mg/kg or 0.25 mg/kg in 20 mM Tris pH 7.5) or vehicle alone (20 mM Tris pH 7.5). On the 5th day, a GIT assay is performed identical to that above except 200 μl of a 10% charcoal solution is administered. […] The results are shown side by side with acute dosing (1 day).

intestinal secretion = assay: Suckling mouse model of intestinal secretion (SuMi assay); type: in vivo; settings: suckling mice
Procedure: In this model a test compound is administered to suckling mice that are between 7 and 9 days old. After the mice are sacrificed, the gastrointestinal tract from the stomach to the cecum is dissected (“guts”). The remains (“carcass”) as well as the guts are weighed and the ratio of guts to carcass weight is calculated. If the ratio is above 0.09, one can conclude that the test compound increases intestinal secretion. […] The effect of Zelnorm® was also studied.

PBQ-induced writhing = assay: Phenylbenzoquinone (PBQ)-induced writhing model
intestinal GC-C receptor = biological target: T1, intestinal GC-C receptor (Homo sapiens, UniProt P25092); assay: Intestinal GC-C receptor activity assay (cyclic GMP by EIA in T84 cells); type: cell-based; settings: chemically synthesized peptides, FIG. 2
T1 construct: host or cells: T84 human colon carcinoma cells
Procedure: The ability of SEQ ID NO:5, SEQ ID NO:4, and SEQ ID NO:3 to activate the intestinal GC-C receptor was assessed in an assay employing the T84 human colon carcinoma cell line (American Type Culture Collection (Bethesda, Md.)). For the assays cells were grown to confluency in 24-well culture plates with a 1:1 mixture of Ham's F12 medium and Dulbecco's modified Eagle's medium (DMEM), supplemented with 5% fetal calf serum and were used at between passages 54 and 60.
Briefly, monolayers of T84 cells in 24-well plates were washed twice with 1 ml/well DMEM, then incubated at 37° C. for 10 min with 0.45 ml DMEM containing 1 mM isobutylmethylxanthine (IBMX), a cyclic nucleotide phosphodiesterase inhibitor. Test peptides (50 μl) were then added and incubated for 30 minutes at 37° C. The media was aspirated and the reaction was then terminated by the addition of ice cold 0.5 ml of 0.1N HCl. The samples were held on ice for 20 minutes and then evaporated to dryness using a heat gun or vacuum centrifugation. The dried samples were resuspended in 0.5 ml of phosphate buffer provided in the Cayman Chemical Cyclic GMP EIA kit (Cayman Chemical, Ann Arbor, Mich.). Cyclic GMP was measured by EIA according to procedures outlined in the Cayman Chemical Cyclic GMP EIA kit.

[1] = biological target: T2, GC-C receptors found in rat intestinal mucosa (Rattus norvegicus, UniProt P23897); set-up: Intestinal mucosa was extruded from the intestine by gentle pressure; from tissue; host or cells: rat small-intestinal epithelial cells (mucosa), used as a cell suspension; settings: same assay, observed by Giannella et al.; cited from earlier work
T2 sequence (P23897 23-1072): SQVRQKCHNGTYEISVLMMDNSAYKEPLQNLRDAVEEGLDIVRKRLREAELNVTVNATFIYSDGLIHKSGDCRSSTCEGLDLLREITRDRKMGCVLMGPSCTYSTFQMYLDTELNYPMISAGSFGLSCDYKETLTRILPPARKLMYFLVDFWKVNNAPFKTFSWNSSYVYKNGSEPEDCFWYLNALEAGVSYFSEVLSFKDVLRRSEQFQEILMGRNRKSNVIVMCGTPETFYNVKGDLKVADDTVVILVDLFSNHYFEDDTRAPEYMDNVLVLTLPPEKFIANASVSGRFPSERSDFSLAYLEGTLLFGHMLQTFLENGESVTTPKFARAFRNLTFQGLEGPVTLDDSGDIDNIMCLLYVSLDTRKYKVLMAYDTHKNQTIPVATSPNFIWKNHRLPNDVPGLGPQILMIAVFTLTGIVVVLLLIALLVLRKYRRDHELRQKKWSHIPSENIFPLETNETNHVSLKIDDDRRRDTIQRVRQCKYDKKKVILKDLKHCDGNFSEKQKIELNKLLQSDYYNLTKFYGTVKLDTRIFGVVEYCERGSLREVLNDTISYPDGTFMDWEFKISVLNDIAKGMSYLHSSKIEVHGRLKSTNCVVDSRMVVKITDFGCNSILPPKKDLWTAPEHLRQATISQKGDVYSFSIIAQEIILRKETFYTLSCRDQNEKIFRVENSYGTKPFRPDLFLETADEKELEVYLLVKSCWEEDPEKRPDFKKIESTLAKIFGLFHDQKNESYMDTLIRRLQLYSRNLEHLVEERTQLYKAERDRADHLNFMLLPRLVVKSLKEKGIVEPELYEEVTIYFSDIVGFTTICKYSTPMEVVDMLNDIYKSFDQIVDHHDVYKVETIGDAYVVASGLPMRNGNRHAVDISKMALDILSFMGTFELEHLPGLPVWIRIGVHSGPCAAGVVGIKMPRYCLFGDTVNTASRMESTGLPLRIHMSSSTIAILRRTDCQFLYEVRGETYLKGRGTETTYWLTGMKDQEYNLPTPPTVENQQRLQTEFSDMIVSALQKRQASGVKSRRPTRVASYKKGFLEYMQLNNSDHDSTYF

[2] = recombinant peptides, dose response, FIG. 6a

T1 sequence (P25092 24-1073): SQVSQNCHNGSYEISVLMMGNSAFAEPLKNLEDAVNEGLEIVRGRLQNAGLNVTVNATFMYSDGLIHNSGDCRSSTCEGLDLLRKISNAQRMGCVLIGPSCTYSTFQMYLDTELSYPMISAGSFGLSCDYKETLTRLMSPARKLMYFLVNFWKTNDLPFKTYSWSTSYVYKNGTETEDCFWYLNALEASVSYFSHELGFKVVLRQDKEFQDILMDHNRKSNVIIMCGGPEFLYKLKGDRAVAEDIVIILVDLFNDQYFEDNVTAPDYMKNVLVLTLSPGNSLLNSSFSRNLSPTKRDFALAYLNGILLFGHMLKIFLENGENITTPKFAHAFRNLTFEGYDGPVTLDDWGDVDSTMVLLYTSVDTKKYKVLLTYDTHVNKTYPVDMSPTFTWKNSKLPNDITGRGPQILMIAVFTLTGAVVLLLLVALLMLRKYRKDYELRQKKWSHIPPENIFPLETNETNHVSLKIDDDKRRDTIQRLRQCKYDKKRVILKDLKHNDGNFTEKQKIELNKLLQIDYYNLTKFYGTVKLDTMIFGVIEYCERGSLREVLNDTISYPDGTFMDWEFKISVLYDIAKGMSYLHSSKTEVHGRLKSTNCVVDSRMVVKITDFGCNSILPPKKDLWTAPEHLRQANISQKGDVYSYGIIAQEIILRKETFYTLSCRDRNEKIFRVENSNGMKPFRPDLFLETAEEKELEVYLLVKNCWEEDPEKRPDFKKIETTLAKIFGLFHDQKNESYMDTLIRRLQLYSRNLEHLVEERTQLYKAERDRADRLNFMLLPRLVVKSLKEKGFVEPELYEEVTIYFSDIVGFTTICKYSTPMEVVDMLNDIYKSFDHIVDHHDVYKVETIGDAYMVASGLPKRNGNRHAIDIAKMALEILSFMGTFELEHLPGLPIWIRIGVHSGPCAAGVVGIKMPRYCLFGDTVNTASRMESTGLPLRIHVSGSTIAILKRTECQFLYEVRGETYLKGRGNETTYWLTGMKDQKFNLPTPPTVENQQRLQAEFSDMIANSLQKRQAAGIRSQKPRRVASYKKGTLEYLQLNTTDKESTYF

Compound | intestinal transit rate versus dosage (gastrointestinal transit; acute, oral, mice) | intestinal secretion (guts to carcass weight ratio) (intestinal secretion; [2]) | antinociceptive effect relative to indomethacin (PBQ-induced writhing; mouse PBQ writhing, visceral pain model) | writhings compared to the vehicle control (PBQ-induced writhing; mouse, oral, 1 mg/kg dose, FIG. 8a) | activity in GC-C receptor activity assay (intestinal GC-C receptor) | gastrointestinal transit rate (gastrointestinal transit; acute, oral, mice) | intestinal transit rate versus Tris buffer or equivalent dose of Zelnorm (gastrointestinal transit; acute, oral, mice, chemically synthesized peptides, FIG. 4b) | intestinal secretion (guts to carcass weight ratio) (intestinal secretion; dose response, FIG. 5a/5b) | Kd [1] [nM] | effect in mouse gastrointestinal motility assay upon chronic dosing (gastrointestinal transit; oral once a day for 5 days, CD1 female mice, FIG. 4c) | intestinal secretion (guts to carcass weight ratio) (intestinal secretion; 0.2 mg/kg, FIG. 5)
NSSNYCCEYCCNPACTGCY (cysteine pairing not given here) [SEQ ID NO:5] | intestinal transit rate increases with an increasing dosage | increase intestinal secretion | antinociceptive effects in this visceral pain model comparable to the intermediate doses of indomethacin | Significant reductions in writhings | – | – | – | – | – | – | –
NSSNYCCELCCNPACTGCY [SEQ ID NO:4, Asn Ser Ser Asn Tyr Cys Cys Glu Leu Cys Cys Asn Pro Ala Cys Thr Gly Cys Tyr] | intestinal transit rate increases with an increasing dosage | increase intestinal secretion | – | – | activity comparable to SEQ ID NO:4 | increase gastrointestinal transit rate | increase intestinal transit rates more than either Tris buffer alone or an equivalent dose of Zelnorm® | increase intestinal secretion | ~13 | – | –
[H]/N=C(/NCCCCC)N/N=C/c1c[nH]c2ccc(OC)cc12 [Zelnorm®, tegaserod] | – | – | – | – | – | increase gastrointestinal transit rate | – | – | – | effective | does not increase intestinal secretion

Source: US7772188B2, “Methods and compositions for the treatment of gastrointestinal disorders” (priority 2003, dated 2010)
